Assay results reported in ChEMBL document CHEMBL3885881, “DrugMatrix”.

Organism: Rattus norvegicus
Test: DrugMatrix - Regimen: Daily Repeat
Type: toxicity, organism-based, Sprague-Dawley
Design: regimen Daily Repeat, gender Male, age 6-8 weeks
Conditions: in vivo, iv, vehicle 100 % SALINE; for ABSOLUTE BASOPHIL / ABSOLUTE EOSINOPHIL / ABSOLUTE LYMPHOCYTE / ABSOLUTE MONOCYTE / ABSOLUTE SEGMENTED NEUTROPHIL / BASOPHIL / EOSINOPHIL / ERYTHROCYTE COUNT / HEMATOCRIT / HEMOGLOBIN / LEUKOCYTE COUNT / LYMPHOCYTE / MEAN CORPUSCULAR HEMOGLOBIN / MEAN CORPUSCULAR HEMOGLOBIN CONCENTRATION / MEAN CORPUSCULAR VOLUME / MONOCYTE / NEUTROPHIL / NUCLEATED RED BLOOD CELLS: tissue Blood; for ALANINE AMINOTRANSFERASE / ALKALINE PHOSPHATASE / ASPARTATE AMINOTRANSFERASE / BLOOD UREA NITROGEN / CARBON DIOXIDE / CHOLESTEROL / CREATINE PHOSPHOKINASE / CREATININE / GLUCOSE / LACTATE DEHYDROGENASE / LIPASE / SODIUM / TOTAL BILIRUBIN / TOTAL PROTEIN / URIC ACID: tissue Plasma
[1] = 0 mg/kg, 72 h, dose level Control, time 3 day
[2] = 0 mg/kg, 120 h, dose level Control, time 5 day
[3] = […], 72 h, dose 0.27 mg/Kg, dose level Low, time 3 day
[4] = […], 72 h, dose 2.7 mg/Kg, dose level High, time 3 day

How did the “ABSOLUTE BASOPHIL” value [1] turn out when `COc1cccc2c1C(=O)c1c(O)c3c(c(O)c1C2=O)C[C@@](O)(C(=O)CO)C[C@@H]3O[C@H]1C[C@H](N)[C@@H](O)[C@H](C)O1` [EPIRUBICIN] was run?
Its value is 0 CELLS/uL.

And the “ABSOLUTE EOSINOPHIL” value [1]?
Its value is 23.17 CELLS/uL.

And the “ABSOLUTE LYMPHOCYTE” value [1]?
Its value is 12448.83 CELLS/uL.

And the “ABSOLUTE MONOCYTE” value [1]?
The value was 259.5 CELLS/uL.

What about the “ABSOLUTE SEGMENTED NEUTROPHIL” value [1] of the same compound?
Its value is 1635.17 CELLS/uL.

And the BASOPHIL [1]?
Its BASOPHIL is 0%.

What about the EOSINOPHIL [1] of the same compound?
The EOSINOPHIL was 0.17%.

And the “ERYTHROCYTE COUNT” value [1]?
The value was 5.35 x10E6/uL.

And the HEMATOCRIT [1]?
The HEMATOCRIT was 34.85%.

What about the HEMOGLOBIN [1] of the same compound?
Its HEMOGLOBIN is 13.72 G/DL.

What about the “LEUKOCYTE COUNT” value [1] of the same compound?
The value was 14.37 x10E3/uL.

What about the LYMPHOCYTE [1] of the same compound?
Its LYMPHOCYTE is 86.5%.

What about the “MEAN CORPUSCULAR HEMOGLOBIN” value [1] of the same compound?
The value was 25.67 pg.

And the “MEAN CORPUSCULAR HEMOGLOBIN CONCENTRATION” value [1]?
Its value is 39.38 G/DL.

What about the “MEAN CORPUSCULAR VOLUME” value [1] of the same compound?
Its value is 65.2 fL.

And the MONOCYTE [1]?
The MONOCYTE was 1.83%.

What about the NEUTROPHIL [1] of the same compound?
The NEUTROPHIL was 11.5%.

And the “NUCLEATED RED BLOOD CELLS” value [1]?
Its value is 0 /100WBC.

And the “ALANINE AMINOTRANSFERASE” value [1]?
The value was 56.5 u/L.

And the “ALKALINE PHOSPHATASE” value [1]?
Its value is 334 u/L.

What about the “ASPARTATE AMINOTRANSFERASE” value [1] of the same compound?
The value was 85.5 u/L.

What about the “BLOOD UREA NITROGEN” value [1] of the same compound?
The value was 16.33 mg/dL.

And the “CARBON DIOXIDE” value [1]?
The value was 26.5 mmol/L.

And the CHOLESTEROL [1]?
The CHOLESTEROL was 70.33 mg/dL.

What about the “CREATINE PHOSPHOKINASE” value [1] of the same compound?
Its value is 339.5 u/L.

What about the CREATININE [1] of the same compound?
The CREATININE was 0.18 mg/dL.

What about the GLUCOSE [1] of the same compound?
Its GLUCOSE is 155.17 mg/dL.

And the “LACTATE DEHYDROGENASE” value [1]?
The value was 382 u/L.

And the LIPASE [1]?
The LIPASE was 9.5 u/L.

What about the SODIUM [1] of the same compound?
Its SODIUM is 143.87 MEQ/L.

What about the “TOTAL BILIRUBIN” value [1] of the same compound?
The value was 0.2 mg/dL.

And the “TOTAL PROTEIN” value [1]?
The value was 5.98 G/DL.

And the “URIC ACID” value [1]?
Its value is 1.53 mg/dL.

And the “ABSOLUTE BASOPHIL” value [2]?
The value was 0 CELLS/uL.

What about the “ABSOLUTE EOSINOPHIL” value [2] of the same compound?
The value was 16.17 CELLS/uL.

And the “ABSOLUTE LYMPHOCYTE” value [2]?
Its value is 10653.67 CELLS/uL.

And the “ABSOLUTE MONOCYTE” value [2]?
Its value is 17.17 CELLS/uL.

And the “ABSOLUTE SEGMENTED NEUTROPHIL” value [2]?
The value was 746.33 CELLS/uL.

What about the BASOPHIL [2] of the same compound?
The BASOPHIL was 0%.

And the EOSINOPHIL [2]?
Its EOSINOPHIL is 0.17%.

What about the “ERYTHROCYTE COUNT” value [2] of the same compound?
The value was 5.88 x10E6/uL.

What about the HEMATOCRIT [2] of the same compound?
The HEMATOCRIT was 36.68%.

And the HEMOGLOBIN [2]?
The HEMOGLOBIN was 14.6 G/DL.

What about the “LEUKOCYTE COUNT” value [2] of the same compound?
The value was 11.43 x10E3/uL.

And the LYMPHOCYTE [2]?
The LYMPHOCYTE was 91.83%.

What about the “MEAN CORPUSCULAR HEMOGLOBIN” value [2] of the same compound?
Its value is 24.85 pg.

What about the “MEAN CORPUSCULAR HEMOGLOBIN CONCENTRATION” value [2] of the same compound?
Its value is 39.8 G/DL.

What about the “MEAN CORPUSCULAR VOLUME” value [2] of the same compound?
Its value is 62.47 fL.

What about the MONOCYTE [2] of the same compound?
Its MONOCYTE is 0.17%.

And the NEUTROPHIL [2]?
The NEUTROPHIL was 7.83%.

What about the “NUCLEATED RED BLOOD CELLS” value [2] of the same compound?
Its value is 0 /100WBC.

And the “ALANINE AMINOTRANSFERASE” value [2]?
The value was 45.5 u/L.

And the “ALKALINE PHOSPHATASE” value [2]?
The value was 330.17 u/L.

And the “ASPARTATE AMINOTRANSFERASE” value [2]?
Its value is 93.33 u/L.

What about the “BLOOD UREA NITROGEN” value [2] of the same compound?
The value was 18 mg/dL.

What about the “CARBON DIOXIDE” value [2] of the same compound?
Its value is 25.5 mmol/L.

What about the CHOLESTEROL [2] of the same compound?
Its CHOLESTEROL is 73.5 mg/dL.

What about the “CREATINE PHOSPHOKINASE” value [2] of the same compound?
Its value is 434 u/L.

What about the CREATININE [2] of the same compound?
The CREATININE was 0.2 mg/dL.

And the GLUCOSE [2]?
The GLUCOSE was 148.83 mg/dL.

And the “LACTATE DEHYDROGENASE” value [2]?
The value was 603.83 u/L.

What about the LIPASE [2] of the same compound?
The LIPASE was 10 u/L.

What about the SODIUM [2] of the same compound?
The SODIUM was 139.78 MEQ/L.

What about the “TOTAL BILIRUBIN” value [2] of the same compound?
Its value is 0.15 mg/dL.

What about the “TOTAL PROTEIN” value [2] of the same compound?
The value was 6.1 G/DL.

And the “URIC ACID” value [2]?
The value was 2.02 mg/dL.

What about the “ABSOLUTE BASOPHIL” value [3] of the same compound?
Its value is 0 CELLS/uL.

What about the “ABSOLUTE EOSINOPHIL” value [3] of the same compound?
Its value is 28 CELLS/uL.

What about the “ABSOLUTE LYMPHOCYTE” value [3] of the same compound?
Its value is 4991.67 CELLS/uL.

What about the “ABSOLUTE MONOCYTE” value [3] of the same compound?
Its value is 38 CELLS/uL.

And the “ABSOLUTE SEGMENTED NEUTROPHIL” value [3]?
The value was 375.67 CELLS/uL.

What about the BASOPHIL [3] of the same compound?
Its BASOPHIL is 0%.

What about the EOSINOPHIL [3] of the same compound?
The EOSINOPHIL was 0.67%.

What about the “ERYTHROCYTE COUNT” value [3] of the same compound?
The value was 4.95 x10E6/uL.

And the HEMATOCRIT [3]?
The HEMATOCRIT was 31.43%.

What about the HEMOGLOBIN [3] of the same compound?
The HEMOGLOBIN was 12.5 G/DL.

What about the “LEUKOCYTE COUNT” value [3] of the same compound?
The value was 5.43 x10E3/uL.

And the LYMPHOCYTE [3]?
The LYMPHOCYTE was 91.67%.

And the “MEAN CORPUSCULAR HEMOGLOBIN” value [3]?
The value was 25.3 pg.

What about the “MEAN CORPUSCULAR HEMOGLOBIN CONCENTRATION” value [3] of the same compound?
Its value is 39.8 G/DL.

What about the “MEAN CORPUSCULAR VOLUME” value [3] of the same compound?
The value was 63.57 fL.

What about the MONOCYTE [3] of the same compound?
The MONOCYTE was 0.67%.

What about the NEUTROPHIL [3] of the same compound?
Its NEUTROPHIL is 7%.

And the “NUCLEATED RED BLOOD CELLS” value [3]?
The value was 0 /100WBC.

What about the “ABSOLUTE BASOPHIL” value [4] of the same compound?
Its value is 0 CELLS/uL.

And the “ABSOLUTE EOSINOPHIL” value [4]?
The value was 0 CELLS/uL.

What about the “ABSOLUTE LYMPHOCYTE” value [4] of the same compound?
Its value is 4049.67 CELLS/uL.

And the “ABSOLUTE MONOCYTE” value [4]?
The value was 29.33 CELLS/uL.

What about the “ABSOLUTE SEGMENTED NEUTROPHIL” value [4] of the same compound?
Its value is 387.67 CELLS/uL.

And the BASOPHIL [4]?
Its BASOPHIL is 0%.

What about the EOSINOPHIL [4] of the same compound?
The EOSINOPHIL was 0%.

What about the “ERYTHROCYTE COUNT” value [4] of the same compound?
Its value is 5.35 x10E6/uL.

And the HEMATOCRIT [4]?
The HEMATOCRIT was 33.77%.

What about the HEMOGLOBIN [4] of the same compound?
Its HEMOGLOBIN is 13.47 G/DL.

What about the “LEUKOCYTE COUNT” value [4] of the same compound?
The value was 4.47 x10E3/uL.

What about the LYMPHOCYTE [4] of the same compound?
The LYMPHOCYTE was 90.67%.

What about the “MEAN CORPUSCULAR HEMOGLOBIN” value [4] of the same compound?
Its value is 25.2 pg.

What about the “MEAN CORPUSCULAR HEMOGLOBIN CONCENTRATION” value [4] of the same compound?
The value was 39.87 G/DL.

And the “MEAN CORPUSCULAR VOLUME” value [4]?
Its value is 63.03 fL.
